Data: patent US8772302B2, “GPR 119 agonists” (Cadila Healthcare Limited, priority 2009, dated 2014)
Where two headings read alike, the source gives them in different places.

Experiments:
[1] = target: T1, recombinant human GPR 119 receptor (Homo sapiens, UniProt Q8TDV5); assay: cAMP assay in stable cell line expressing recombinant human GPR 119 receptor; type: cell-based; details: intracellular cAMP
T1 construct: expressed in transfected cells
T1 sequence (Q8TDV5 1-335): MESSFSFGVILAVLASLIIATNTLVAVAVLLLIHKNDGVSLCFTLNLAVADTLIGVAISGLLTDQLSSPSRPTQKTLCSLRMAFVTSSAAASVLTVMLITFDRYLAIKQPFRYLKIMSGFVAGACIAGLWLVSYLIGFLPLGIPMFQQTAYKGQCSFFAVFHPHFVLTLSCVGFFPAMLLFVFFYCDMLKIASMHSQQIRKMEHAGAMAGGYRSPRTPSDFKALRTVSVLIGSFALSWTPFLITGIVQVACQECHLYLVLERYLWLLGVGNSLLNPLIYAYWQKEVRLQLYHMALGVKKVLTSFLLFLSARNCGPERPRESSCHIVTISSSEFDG
Excerpt: cAMP assay: A stable cell line expressing recombinant human GPR 119 receptor was established and used to investigate the efficacy of the compounds of the invention based on the intracellular levels of cyclic AMP (cAMP) using commercially available cAMP kits. Compounds of the invention produced a concentration dependent increase in cAMP level and EC50 values of representative compounds were provided in table 1.

Sprague Dawley rats = assay: Feed intake in Sprague Dawley rats; type: in vivo, rat; details: Rattus norvegicus, cumulative feed intake vs vehicle; for inhibition in vivo at 25 mg/kg: ip, intraperitoneal; for inhibition in vivo at 50 mg/kg: oral
Excerpt: In Vivo Efficacy Studies: Feed Intake in Sprague Dawley Rats:
Sprague Dawley rats of 6-8 week age are used for this experiment they are kept for acclimatization in reversed light/dark cycle for 15 days. Animals will have free access to a standard chow diet and water during acclimatization period. After 15 days reversed light/dark cycle acclimatization animals are trained for fasting induced feed intake for 5 days till they show consistent feed intake. Grouping was done based on the monitored feed intake during the training days. On treatment day each group of animals are dosed with test compound or vehicle by appropriate routes of administration (orally or intraperitoneally). Exactly 30 min. after treatment, measured amount of standard chow diet is provided and recorded as O-min feed offered. Then subsequently 2, 4, 6 and 24 hour after O-min, feed intake is measured and the cumulative feed intakes are calculated. The change in cumulative feed intake as compared to vehicle treated control at each time point is calculated for test compound.

C57/BL6 mice = assay: Oral glucose tolerance test (OGTT) in C57/BL6 mice; type: in vivo, mouse; details: Mus musculus, 2 h, serum glucose AUC, single oral dose, glucose load 3 gm/kg, read-out: % reduction in AUC at 50 mg/kg
Description: Oral Glucose Tolerance Tests (OGTT) in C57/BL6 Mice:
C57/BL6 mice of 6-8 week age are used for this experiment. Animals are grouped based on non-fasting serum glucose levels and kept on fasting for overnight (day before OGTT). On the experiment day, […], 30 min post dosing animals are bled for basal glucose level estimation and at the same time glucose load (3 gm/kg) will be administered per orally. Blood is collected at time points corresponding to 20, 40, 60 and 120 min after glucose load administration. Serum is separated for determination of glucose levels and change in area under curve for glucose is calculated and provided in table 4 as % reduction in AUC.

[2] = 2 hour, read-out: % reduction in food in take, 2 hour
[3] = 4 hour, read-out: % reduction in food in take, 4 hour
[4] = 6 hour, read-out: % reduction in food in take, 6 hour
[5] = 24 hour, read-out: % reduction in food in take, 24 hour

| Structure (SMILES) | EC50 [1] | inhibition in vivo at 25 mg/kg (Sprague Dawley rats; [2]) | inhibition in vivo at 25 mg/kg (Sprague Dawley rats; [3]) | inhibition in vivo at 25 mg/kg (Sprague Dawley rats; [4]) | inhibition in vivo at 25 mg/kg (Sprague Dawley rats; [5]) | inhibition in vivo at 50 mg/kg (Sprague Dawley rats; [2]) | inhibition in vivo at 50 mg/kg (Sprague Dawley rats; [3]) | inhibition in vivo at 50 mg/kg (Sprague Dawley rats; [4]) | inhibition in vivo at 50 mg/kg (Sprague Dawley rats; [5]) | inhibition in vivo at 50 mg/kg (C57/BL6 mice) |
| --- | --- | --- | --- | --- | --- | --- | --- | --- | --- | --- |
| CCc1cnc(N2CCC(Oc3ncnc(Oc4ccc([C@H]5CO[S@@](=O)OC5)cc4)c3C)CC2)nc1 [Example 9, cis-5-(4-((6-((1-(5-ethylpyrimidin-2-yl)piperidin-4-yl)oxy)-5-methylpyrimidin-4-yl)oxy)phenyl)-1,3,2-dioxathiane 2-oxide] | 12 nM | 44% | 37% | 30% | 24% | 25% | 12% | 6% | 2% | 31% |
| Cc1c(Oc2ccc([C@H]3CO[S@@](=O)OC3)cc2)ncnc1OC1CCN(c2nc(C(C)C)no2)CC1 [Example 3, cis-5-(4-((6-((1-(3-isopropyl-1,2,4-oxadiazol-5-yl)piperidin-4-yl)oxy)-5-methylpyrimidin-4-yl)oxy)phenyl)-1,3,2-dioxathiane 2-oxide] | 13 nM | 34% | 25% | 25% | 17% | – | – | – | – | 23% |
| CCOC(=O)N1CCC(Oc2ncnc(Oc3ccc([C@H]4CO[S@](=O)OC4)cc3)c2C)CC1 [Example 34, trans-ethyl 4-((5-methyl-6-(4-(2-oxido-1,3,2-dioxathian-5-yl)phenoxy)pyrimidin-4-yl)oxy)piperidine-1-carboxylate] | 93 nM | 45% | 30% | 19% | 10% | – | – | – | – | 27% |
| Cc1c(Oc2ccc([C@H]3CO[S@@](=O)OC3)cc2)ncnc1OC1CCN(C(=O)OCC(C)C)CC1 [Example 27, cis-isobutyl 4-((5-methyl-6-(4-(2-oxido-1,3,2-dioxathian-5-yl)phenoxy)pyrimidin-4-yl)oxy)piperidine-1-carboxylate] | 27 nM | 35% | 35% | 31% | 17% | 23% | 20% | 23% | 5% | 30% |
| CC(C)c1noc(C2CCN(c3ncnc(Oc4ccc([C@H]5CO[S@@](=O)OC5)cc4)c3[N+](=O)[O-])CC2)n1 [Example 1, cis-5-(4-((6-(4-(3-isopropyl-1,2,4-oxadiazol-5-yl)piperidin-1-yl)-5-nitropyrimidin-4-yl)oxy)phenyl)-1,3,2-dioxathiane 2-oxide] | 31 nM | 45% | 24% | 8.5% | 4% | – | – | – | – | 23% |
| CCc1cnc(N2CCC(Oc3ncnc(Oc4ccc([C@H]5CO[S@](=O)OC5)cc4)c3C)CC2)nc1 [Example 10, trans-5-(4-((6-((1-(5-ethylpyrimidin-2-yl)piperidin-4-yl)oxy)-5-methylpyrimidin-4-yl)oxy)phenyl)-1,3,2-dioxathiane 2-oxide] | 73.6 nM | – | – | – | – | 36% | 29% | 15% | 15% | 29% |
| CCc1cnc(N2CCC(Oc3ncnc(Oc4ccc(C[C@H]5CO[S@](=O)OC5)cc4)c3C)CC2)nc1 [Example 32, trans-5-(4-((6-((1-(5-ethylpyrimidin-2-yl)piperidin-4-yl)oxy)-5-methylpyrimidin-4-yl)oxy)benzyl)-1,3,2-dioxathiane 2-oxide] | 86 nM | 50% | 37% | 32% | 18% | – | – | – | – | 41% |
| Cc1c(Oc2ccc([C@H]3CO[S@](=O)OC3)cc2)ncnc1OC1CCN(c2nc(C(C)C)no2)CC1 [Example 4, trans-5-(4-((6-((1-(3-isopropyl-1,2,4-oxadiazol-5-yl)piperidin-4-yl)oxy)-5-methylpyrimidin-4-yl)oxy)phenyl)-1,3,2-dioxathiane 2-oxide] | 11 nM | 40% | 33% | 21% | – | 30% | 24% | 9.5% | 6% | 31% |
| Cc1c(Oc2ccc([C@H]3CO[S@](=O)OC3)cc2)ncnc1OC1CCN(C(=O)OC(C)(C)C)CC1 [Example 16, trans-tert-butyl 4-((5-methyl-6-(4-(2-oxido-1,3,2-dioxathian-5-yl)phenoxy)pyrimidin-4-yl)oxy)piperidine-1-carboxylate] | 15 nM | 21% | 27% | 10% | – | – | – | – | – | 34% |
| CCOC(=O)N1CCC(Oc2ncnc(Oc3ccc([C@H]4CO[S@@](=O)OC4)cc3)c2C)CC1 [Example 33, cis-ethyl 4-((5-methyl-6-(4-(2-oxido-1,3,2-dioxathian-5-yl)phenoxy)pyrimidin-4-yl)oxy)piperidine-1-carboxylate] | 86 nM | 70% | 44% | 24% | 21% | – | – | – | – | 30% |
| Cc1c(Oc2ccc(C[C@H]3CO[S@](=O)OC3)cc2)ncnc1OC1CCN(C(=O)OCC(C)C)CC1 [Example 44, trans-isobutyl 4-((5-methyl-6-(4-((2-oxido-1,3,2-dioxathian-5-yl)methyl)phenoxy)pyrimidin-4-yl)oxy)piperidine-1-carboxylate] | 108 nM | – | – | – | – | 38% | 30% | 24% | 7% | 31% |
| Cc1c(Oc2ccc([C@H]3CO[S@](=O)OC3)cc2)ncnc1OC1CCN(C(=O)OCC(C)C)CC1 [Example 28, trans-isobutyl 4-((5-methyl-6-(4-(2-oxido-1,3,2-dioxathian-5-yl)phenoxy)pyrimidin-4-yl)oxy)piperidine-1-carboxylate] | 57 nM | 67% | 59% | 40% | 24% | 24% | 19% | 9% | 2% | 40% |
